Assay results: patent publication US4013762A, “Growth promotion” (Richardson-Merrell Inc., priority 1976, dated 1977)
Where two headings read alike, the source gives them in different places.

Columns and labels:
androgen receptor = target: T1, androgen receptor (Rattus norvegicus, UniProt P15207); test: Androgen binding: competitive binding with 3H-testosterone labeled cytosol receptor sites, rat prostate cytosol
T1 construct: male rats were castrated and the prostate cytosol was prepared; from tissue; host or cells: prostate cytosol of castrated male rats, prepared 24 to 48 hours after surgery
T1 sequence (P15207 1-902): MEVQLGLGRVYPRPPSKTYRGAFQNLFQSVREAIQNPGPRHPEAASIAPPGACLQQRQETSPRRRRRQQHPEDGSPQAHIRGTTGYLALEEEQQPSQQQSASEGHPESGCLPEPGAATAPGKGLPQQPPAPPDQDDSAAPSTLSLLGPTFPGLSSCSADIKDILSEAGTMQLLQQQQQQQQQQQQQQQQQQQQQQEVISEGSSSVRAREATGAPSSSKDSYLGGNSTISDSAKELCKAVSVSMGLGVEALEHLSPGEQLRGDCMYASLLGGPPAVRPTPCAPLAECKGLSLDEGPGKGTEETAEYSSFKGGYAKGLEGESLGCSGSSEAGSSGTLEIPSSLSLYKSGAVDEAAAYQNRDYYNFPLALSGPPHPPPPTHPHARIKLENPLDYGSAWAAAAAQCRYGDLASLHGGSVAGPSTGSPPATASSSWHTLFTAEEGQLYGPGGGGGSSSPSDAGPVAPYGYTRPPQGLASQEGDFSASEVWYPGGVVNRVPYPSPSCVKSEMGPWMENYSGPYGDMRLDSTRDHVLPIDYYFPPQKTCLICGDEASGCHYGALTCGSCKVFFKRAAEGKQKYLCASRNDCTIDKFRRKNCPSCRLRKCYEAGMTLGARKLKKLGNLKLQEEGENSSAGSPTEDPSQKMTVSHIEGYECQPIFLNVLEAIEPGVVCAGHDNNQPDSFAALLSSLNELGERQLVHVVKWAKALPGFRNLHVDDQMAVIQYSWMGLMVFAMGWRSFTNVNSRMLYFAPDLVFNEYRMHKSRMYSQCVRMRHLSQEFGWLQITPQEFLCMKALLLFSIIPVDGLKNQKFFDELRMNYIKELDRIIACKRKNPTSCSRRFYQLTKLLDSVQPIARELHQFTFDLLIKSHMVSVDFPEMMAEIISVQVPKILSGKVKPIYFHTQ
From the text: This binding is the first step necessary for hormonal action.

[1] = tested on: ten day old leghorn chicks; test: Chick weight gain, subcutaneous treatment for six days; format: in vivo; conditions: for Weight Gain (g ± S.E.M.): gain during one week, control 52.7 ± 1.6, * significantly different from controls, p <- 0.05
poultry and ruminants [2] = conditions: background, known; cited from earlier work
muscle fiber [3] = conditions: background, known; cited from earlier work
muscle fiber [4] = test: Masculinizing effect on the muscle fiber; format: in vivo; conditions: applicant's findings
poultry and ruminants [5] = test: Growth promotion in animals; format: in vivo; conditions: applicant's findings
[6] = reported in U.S. Pat. Nos. 3,235,573 and 3,449,381; cited from earlier work

C[C@]12CC[C@H]3[C@@H](CCC4=CC(=O)CC[C@@]43C=O)[C@@H]1CCC2=O [3,17-Dioxoandrost-4-en-19-al, 3,17-dioxoandrost-4-en-19-al]
androgen receptor binding (androgen receptor; in vitro, androgen target tissue): lack of androgen binding affinity
% Binding (androgen binding, relative) (androgen receptor; relative to 5α-dihydrotestosterone equated to 100, 4 × 10^-6 to 4 × 10^-10 molar, castrated male rat prostate cytosol): 0.07%
Weight Gain (g ± S.E.M.) ([1]; 1 mg/kg/day subcutaneously for six days): 58.8 ± 1.4 g
Weight Gain (g ± S.E.M.) ([1]; 10 mg/kg/day subcutaneously for six days): 63.0 ± 1.1 g
Weight Gain (g ± S.E.M.) ([1]; 30 mg/kg/day subcutaneously for six days): 74.0 ± 2.6 g
growth rate as measured by weight gain ([1]; 1.0, 10 and 30 mg/kg/day s.c. six days, compared to untreated control chicks): significant increase in growth rate

CCC(=O)O[C@H]1CC[C@H]2[C@@H]3CCC4=CC(=O)CC[C@]4(C)[C@H]3CC[C@]12C [testosterone propionate]
growth promotion (poultry and ruminants [2]): effective in promoting growth in animals
masculinization of the muscle fiber (muscle fiber [3]): masculinization of the muscle fiber

CSCCC(O)C(=O)O (stereo not drawn) [α-hydroxy-γ-methylmercaptobutyric acid]
growth promotion (poultry and ruminants [2]): promote growth by improving feed efficiency

C[C@]12CC[C@H]3[C@@H](CCC4=CC(=O)CC[C@@]43C=O)[C@@H]1CC[C@@H]2O [3-oxo-17β-hydroxyandrost-4-en-19-al]
masculinizing effect on the muscle fiber (muscle fiber [4]): without any masculinizing effect on the muscle fiber
growth promotion (poultry and ruminants [5]): effective in growth promotion in animals
anabolic-androgenic activity [6]: anabolic-androgenic activity
